From patent publication US4751302A, “Indazole derivatives” (priority 1982, dated 1988)

What was measured:
[1] = tested on: Bradykinin inducing edema; experiment: Anti-edema test, bradykinin inducing edema (Table 2); type: in vivo, rat; settings: Dose: 10 mg/kg, oral, after 30 minutes
Method: (§1) […] A. Winter et al., NonSteroidal Anti-inflammatory Drugs. As an edema inducing substance, bradykinin, histamine and serotonin were employed. […] Bradykinin inducing edema inhibition and histamine inducing edema inhibition were measured after 30 minutes of the administration, and serotonin inducing edema inhibition was measured after 3 hours of the administration.

Serotonin inducing edema = experiment: Anti-edema test, serotonin inducing edema (Table 2); type: in vivo, rat; settings: Dose: 10 mg/kg, oral, after 3 hours
Method: as §1

Histamine inducing edema = experiment: Anti-edema test, histamine inducing edema (Table 2); type: in vivo, rat; settings: Dose: 10 mg/kg, oral, after 30 minutes
Method: as §1

in vivo = settings: mouse, ip, intraperitoneal, hydrochloride, male ddy mice
[2] = tested on: Carrageenin edema in rat's paw; experiment: Carrageenin Edema Test in Rat's Paw (anti-inflammatory activity, Table 1); type: in vivo; settings: 100 mg/kg oral, hydrochloride, rat
Method: An anti-inflammatory activity was measured by orally administering 100 mg/kg of a hydrochloride of the indazole derivative of this invention as set forth in Table 1 to an animal in accordance with the standard method of Carrageenin Edema Test in Rat's Paw described in C. A. Winter et al., Proc. Soc. Exp. Biol. Med., 111, 544 (1962).

Row | Compound | Bradykinin inducing edema Inhibition [1] [%] | Serotonin inducing edema Inhibition (Serotonin inducing edema) [%] | Histamine inducing edema Inhibition (Histamine inducing edema) [%] | LD50 (in vivo) [mg/kg] | inhibition in vivo at 100 mg/kg [2] [%]
1 | CC(C(=O)O)c1cccc(C(=O)c2ccccc2)c1 (stereo not drawn) [Compound C-6, 3-benzoylhydratropic acid] | 1.6 | 5.2 | 2.9 | – | –
2 | CC(CCn1nc(NCCCN2CCCCC2)c2cc(Cl)ccc21)N1CCCCC1 (stereo not drawn) [(105), 1-(3-Piperidinobutyl)-3-(3-piperidinopropylamino)-5-chloroindazole] | – | – | – | 231 | 29
3 | CC(CCNc1n[nH]c2ccc(O)cc12)N(C)C (stereo not drawn) [(75), 3-(3-Dimethylaminobutylamino)-5-hydroxyindazole] | – | – | – | 234 | 34
4 | Oc1ccc2c(c1)c(NCCCCCCN1CCCCC1)nn2CCCN1CCCCC1 [(132), 1-(3-Piperidinopropyl)-3-(6-piperidinohexylamino)-5-hydroxyindazole] | – | – | – | 310 | 21
5 | CCN(CC)CCCNc1nn(CCCN(CC)CC)c2c(Cl)cccc12 [(92), 1-(3-Diethylaminopropyl)-3-(3-diethylaminopropylamino)-7-chloroindazole] | – | – | – | 211 | 32
6 | Oc1ccc2c(c1)c(NCCCN1CCCCC1)nn2CCCN1CCCCC1 [(131), 1-(3-Piperidinopropyl)-3-(3-piperidinopropylamino)-5-hydroxyindazole] | – | – | – | 298 | 28
7 | Oc1ccc2c(c1)c(NCCCN1CCCCCC1)nn2CCCN1CCCC1 [(142), 1-(3-Pyrrolidinopropyl)-3-(3-homopiperidinopropylamino)-5-hydroxyindazole] | – | – | – | 349 | 28
8 | CCCCN(CCCC)CCCn1nc(N)c2cc(Cl)ccc21 [(8), 1-(3-Di-n-butylaminopropyl)-3-amino-5-chloroindazole] | – | – | – | 231 | 56
9 | CCN(CC)CCCn1nc(N)c2c(Cl)cccc21 [(1), 1-(3-Diethylaminopropyl)-3-amino-4-chloroindazole] | – | – | – | 171 | 58
10 | Nc1cc(N)c2[nH]nc(N)c2c1 [(167), 3,5,7-Triaminoindazole] | – | – | – | 171 | 85
11 | CCN(CC)CCCn1nc(N)c2c(O)cccc21 [(23), 1-(3-Diethylaminopropyl)-3-amino-4-hydroxyindazole] | – | – | – | 179 | 56
12 | CCN(CC)CCCn1nc(N)c2cc(C)ccc21 [(7), 1-(3-Diethylaminopropyl)-3-amino-5-methylindazole] | – | – | – | 221 | 58
13 | CCCCN(CCCC)CCCNc1n[nH]c2ccc(O)cc12 [(74), 3-(3-Di-n-butylaminopropylamino)-5-hydroxyindazole] | – | – | – | 253 | 53
14 | CCN(CC)CCCn1nc(N)c2ccc(Cl)cc21 [(3), 1-(3-Diethylaminopropyl)-3-amino-6-chloroindazole] | – | – | – | 241 | 54
15 | CCN(CC)CCCNc1nn(CCCN(CC)CC)c2ccc(C)cc12 [(95), 1-(3-Diethylaminopropyl)-3-(3-diethylaminopropylamino)-5-methylindazole] | – | – | – | 211 | 29
16 | Oc1ccc2[nH]nc(NCCCN3CCC(Cl)CC3)c2c1 [(84), 3-[3-(4-Chloropiperidino)propylamino]-5-hydroxyindazole] | – | – | – | 163 | 63
17 | CN1CCN(CCCNc2n[nH]c3ccc(Cl)cc23)CC1 [(64), 3-[3-(4-Methylpiperadino)propylamino]-5-chloroindazole] | – | – | – | 229 | 29
18 | CC(C)CC(CCn1nc(N)c2cc(Cl)ccc21)N1CCCCC1 (stereo not drawn) [(14), 1-(3-Piperidino-5-methylhexyl)-3-amino-5-chloroindazole] | – | – | – | 301 | 34
19 | CCN(CC)CCCNc1nn(CCCN2CCCCC2)c2ccc(O)cc12 [(130), 1-(3-Piperidinopropyl)-3-(3-diethylaminopropylamino)-5-hydroxyindazole] | – | – | – | 211 | 29
20 | CCN(CC)CCCNc1nn(CCC(C)N2CCCCC2)c2ccc(O)cc12 (stereo not drawn) [(134), 1-(3-Piperidinobutyl)-3-(3-diethylaminopropylamino)-5-hydroxyindazole] | – | – | – | 349 | 29
21 | Nc1n[nH]c2c(I)cccc12 [(166), 3-Amino-7-iodoindazole] | – | – | – | 198 | 50
22 | CC(CCn1nc(N)c2ccccc21)N1CCOCC1 (stereo not drawn) [(150), 1-(3-Morpholinobutyl)-3-aminoindazole] | – | – | – | 270 | 39

Row | Compound | Bradykinin inducing edema Inhibition [1] [%] | Serotonin inducing edema Inhibition (Serotonin inducing edema) [%] | Histamine inducing edema Inhibition (Histamine inducing edema) [%] | LD50 (in vivo) [mg/kg] | inhibition in vivo at 100 mg/kg [2] [%]
23 | CCN(CC)C(CCn1nc(N)c2cc(O)ccc21)CC(C)C (stereo not drawn) [(32), 1-(3-Diethylamino-5-methylhexyl)-3-amino-5-hydroxyindazole] | – | – | – | 251 | 47
24 | ClC1CCN(CCCNc2nn(CCCN3CCOCC3)c3ccccc23)CC1 [(157), 1-(3-Morpholinopropyl)-3-[3-(4-chloropiperidino)propylamino]indazole] | – | – | – | 251 | 29
25 | CCN(CC)C(CCn1nc(N)c2cc(Cl)ccc21)CC(C)C (stereo not drawn) [(10), 1-(3-Diethylamino-5-methylhexyl)-3-amino-5-chloroindazole] | – | – | – | 239 | 49
26 | Nc1n[nH]c2ccc(I)cc12 [(165), 3-Amino-5-iodoindazole] | – | – | – | 242 | 55
27 | Clc1ccc2c(c1)c(NCCCCCCN1CCCCC1)nn2CCCN1CCCCC1 [(102), 1-(3-Piperidinopropyl)-3-(6-piperidinohexylamino)-5-chloroindazole] | – | – | – | 255 | 22
28 | Nc1nn(CCCN2CCC(O)CC2)c2ccc(Cl)cc12 [(17), 1-[3-(4-Hydroxypiperidino)propyl]-3-amino-5-chloroindazole] | – | – | – | 251 | 37
29 | CCN(CC)CCCNc1n[nH]c2c(N)cc(N)cc12 [(73), 3-(3-Diethylaminopropylamino)-5,7-diaminoindazole] | – | – | – | 355 | 55
30 | CC1CCCCN1CCCNc1nn(CCCN2CCCC2)c2ccc(O)cc12 (stereo not drawn) [(143), 1-(3-Pyrrolidinopropyl)-3-[3-(2-methylpiperidino)propylamino]-5-hydroxyindazole] | – | – | – | 291 | 30
31 | CCCCN(CCCC)CCCNc1n[nH]c2ccc(Cl)cc12 [(52), 3-(3-Di-n-butylaminopropylamino)-5-chloroindazole] | – | – | – | 211 | 61
32 | CC(CCNc1nn(CCCN2CCCCC2)c2ccc(O)cc12)N1CCCCC1 (stereo not drawn) [(133), 1-(3-Piperidinopropyl)-3-(3-piperidinobutylamino)-5-hydroxyindazole] | – | – | – | 330 | 28
33 | Oc1ccc2[nH]nc(NCCCN3CCOCC3)c2c1 [(88), 3-(3-Morpholinopropylamino)-5-hydroxyindazole] | – | – | – | 346 | 46
34 | Nc1nn(CCCN2CCC(Cl)CC2)c2ccc(O)cc12 [(40), 1-[3-(4-Chloropiperidino)propyl]-3-amino-5-hydroxyindazole] | – | – | – | 335 | 64
35 | Nc1nn(CCCCCCN2CCCCC2)c2ccc(Cl)cc12 [(12), 1-(6-Piperidinohexyl)-3-amino-5-chloroindazole] | – | – | – | 337 | 28
36 | CCN(CC)CCCNc1nn(CCC(C)N2CCCCC2)c2ccc(Cl)cc12 (stereo not drawn) [(104), 1-(3-Piperidinobutyl)-3-(3-diethylaminopropylamino)-5-chloroindazole] | – | – | – | 277 | 30
37 | CCN(CC)CCCNc1nn(CCCN2CCOCC2)c2ccccc12 [(155), 1-(3-Morpholinopropyl)-3-(3-diethylaminopropylamino)indazole] | – | – | – | 291 | 30
38 | CCN(CC)CCCNc1n[nH]c2cccc(O)c12 [(67), 3-(3-Diethylaminopropylamino)-4-hydroxyindazole] | – | – | – | 255 | 55
39 | CCN(CC)CCCNc1n[nH]c2ccc(I)cc12 [(71), 3-(3-Diethylaminopropylamino)-5-iodoindazole] | – | – | – | 256 | 56
40 | CC1CCCCN1CCCNc1n[nH]c2ccc(Cl)cc12 (stereo not drawn) [(59), 3-[3-(2-Methylpiperidino)propylamino]-5-chloroindazole] | – | – | – | 210 | 63
41 | Clc1ccc2[nH]nc(NCCCN3CCOCC3)c2c1 [(66), 3-(3-Morpholinopropylamino)-5-chloroindazole] | – | – | – | 246 | 46
42 | Nc1n[nH]c2cccc(O)c12 [(161), 3-Amino-4-hydroxyindazole] | – | – | – | 211 | 41
43 | CCN(CC)CCCn1nc(NCCC(C)N2CCCCC2)c2cc(Cl)ccc21 (stereo not drawn) [(99), 1-(3-Diethylaminopropyl)-3-(3-piperidinobutylamino)-5-chloroindazole] | – | – | – | 295 | 28
